# Numbers after ± are expanded uncertainties.
# Assay: xn = mol fraction of the nth substance listed
# Settings: Liquid, Vibrating tube method
compound,measurement,setting,value
"Cc1ccc(C)cc1 [1,4-dimethylbenzene] + COC(=O)OC",mass density,"288.15 K, 100 kPa, x2 = 0.0432",871.8 ± 4 kg/m3
same,mass density,"288.15 K, 100 kPa, x2 = 0.195",894.2 ± 4 kg/m3
same,mass density,"288.15 K, 100 kPa, x2 = 0.3968",924.2 ± 4 kg/m3
same,mass density,"288.15 K, 100 kPa, x2 = 0.4933",944.9 ± 4 kg/m3
same,mass density,"288.15 K, 100 kPa, x2 = 0.5296",953.3 ± 4 kg/m3
same,mass density,"288.15 K, 100 kPa, x2 = 0.5993",968.4 ± 4 kg/m3
same,mass density,"288.15 K, 100 kPa, x2 = 0.7034",992.3 ± 4 kg/m3
same,mass density,"288.15 K, 100 kPa, x2 = 0.8023",1010.6 ± 4 kg/m3
same,mass density,"288.15 K, 100 kPa, x2 = 0.8921",1038.1 ± 4 kg/m3
same,mass density,"288.15 K, 100 kPa, x2 = 0.9478",1052.9 ± 4 kg/m3
same,mass density,"288.15 K, 5000 kPa, x2 = 0.0432",875.5 ± 4 kg/m3
same,mass density,"288.15 K, 5000 kPa, x2 = 0.195",897.8 ± 4 kg/m3
same,mass density,"288.15 K, 5000 kPa, x2 = 0.3968",931.9 ± 4 kg/m3
same,mass density,"288.15 K, 5000 kPa, x2 = 0.4933",950.4 ± 4 kg/m3
same,mass density,"288.15 K, 5000 kPa, x2 = 0.5296",957.3 ± 4 kg/m3
same,mass density,"288.15 K, 5000 kPa, x2 = 0.5993",972.4 ± 4 kg/m3
same,mass density,"288.15 K, 5000 kPa, x2 = 0.7034",996.2 ± 4 kg/m3
same,mass density,"288.15 K, 5000 kPa, x2 = 0.8921",1042.5 ± 4 kg/m3
same,mass density,"288.15 K, 5000 kPa, x2 = 0.9478",1057.2 ± 4 kg/m3
same,mass density,"288.15 K, 10000 kPa, x2 = 0.0432",879.1 ± 4 kg/m3
same,mass density,"288.15 K, 10000 kPa, x2 = 0.195",901.3 ± 4 kg/m3
same,mass density,"288.15 K, 10000 kPa, x2 = 0.3968",935.7 ± 4 kg/m3
same,mass density,"288.15 K, 10000 kPa, x2 = 0.4933",954.1 ± 4 kg/m3
same,mass density,"288.15 K, 10000 kPa, x2 = 0.5296",961.2 ± 4 kg/m3
same,mass density,"288.15 K, 10000 kPa, x2 = 0.5993",976.3 ± 4 kg/m3
same,mass density,"288.15 K, 10000 kPa, x2 = 0.7034",1000.3 ± 4 kg/m3
same,mass density,"288.15 K, 10000 kPa, x2 = 0.8921",1046.6 ± 4 kg/m3
same,mass density,"288.15 K, 10000 kPa, x2 = 0.9478",1061.4 ± 4 kg/m3
same,mass density,"288.15 K, 20000 kPa, x2 = 0.0432",885.4 ± 4 kg/m3
same,mass density,"288.15 K, 20000 kPa, x2 = 0.195",907.8 ± 4 kg/m3
same,mass density,"288.15 K, 20000 kPa, x2 = 0.3968",942.5 ± 4 kg/m3
same,mass density,"288.15 K, 20000 kPa, x2 = 0.4933",961.4 ± 4 kg/m3
same,mass density,"288.15 K, 20000 kPa, x2 = 0.5296",968.3 ± 4 kg/m3
same,mass density,"288.15 K, 20000 kPa, x2 = 0.5993",983.7 ± 4 kg/m3
same,mass density,"288.15 K, 20000 kPa, x2 = 0.7034",1007.8 ± 4 kg/m3
same,mass density,"288.15 K, 20000 kPa, x2 = 0.8921",1054.5 ± 4 kg/m3
same,mass density,"288.15 K, 20000 kPa, x2 = 0.9478",1069.4 ± 4 kg/m3
same,mass density,"288.15 K, 30000 kPa, x2 = 0.0432",891.3 ± 4 kg/m3
same,mass density,"288.15 K, 30000 kPa, x2 = 0.195",914 ± 4 kg/m3
same,mass density,"288.15 K, 30000 kPa, x2 = 0.3968",949 ± 4 kg/m3
same,mass density,"288.15 K, 30000 kPa, x2 = 0.4933",967.9 ± 4 kg/m3
same,mass density,"288.15 K, 30000 kPa, x2 = 0.5296",974.9 ± 4 kg/m3
same,mass density,"288.15 K, 30000 kPa, x2 = 0.5993",990.5 ± 4 kg/m3
same,mass density,"288.15 K, 30000 kPa, x2 = 0.7034",1014.7 ± 4 kg/m3
same,mass density,"288.15 K, 30000 kPa, x2 = 0.8921",1061.5 ± 4 kg/m3
same,mass density,"288.15 K, 30000 kPa, x2 = 0.9478",1076.7 ± 4 kg/m3
same,mass density,"288.15 K, 40000 kPa, x2 = 0.0432",897.1 ± 4 kg/m3
same,mass density,"288.15 K, 40000 kPa, x2 = 0.195",920.1 ± 4 kg/m3
same,mass density,"288.15 K, 40000 kPa, x2 = 0.3968",955.3 ± 4 kg/m3
same,mass density,"288.15 K, 40000 kPa, x2 = 0.4933",974.3 ± 4 kg/m3
same,mass density,"288.15 K, 40000 kPa, x2 = 0.5296",980.9 ± 4 kg/m3
same,mass density,"288.15 K, 40000 kPa, x2 = 0.5993",997.1 ± 4 kg/m3
same,mass density,"288.15 K, 40000 kPa, x2 = 0.7034",1021.4 ± 4 kg/m3
same,mass density,"288.15 K, 40000 kPa, x2 = 0.8921",1068.7 ± 4 kg/m3
same,mass density,"288.15 K, 40000 kPa, x2 = 0.9478",1083.8 ± 4 kg/m3
same,mass density,"298.15 K, 100 kPa, x2 = 0.0432",863 ± 4 kg/m3
same,mass density,"298.15 K, 100 kPa, x2 = 0.195",884.5 ± 4 kg/m3
same,mass density,"298.15 K, 100 kPa, x2 = 0.3968",917.8 ± 4 kg/m3
same,mass density,"298.15 K, 100 kPa, x2 = 0.4933",935.8 ± 4 kg/m3
same,mass density,"298.15 K, 100 kPa, x2 = 0.5296",942.5 ± 4 kg/m3
same,mass density,"298.15 K, 100 kPa, x2 = 0.5993",957.3 ± 4 kg/m3
same,mass density,"298.15 K, 100 kPa, x2 = 0.7034",980.5 ± 4 kg/m3
same,mass density,"298.15 K, 100 kPa, x2 = 0.8023",998.4 ± 4 kg/m3
same,mass density,"298.15 K, 100 kPa, x2 = 0.8921",1025.5 ± 4 kg/m3
same,mass density,"298.15 K, 100 kPa, x2 = 0.9478",1040 ± 4 kg/m3
same,mass density,"298.15 K, 5000 kPa, x2 = 0.0432",867.3 ± 4 kg/m3
same,mass density,"298.15 K, 5000 kPa, x2 = 0.195",888.3 ± 4 kg/m3
same,mass density,"298.15 K, 5000 kPa, x2 = 0.3968",922.5 ± 4 kg/m3
same,mass density,"298.15 K, 5000 kPa, x2 = 0.4933",940.6 ± 4 kg/m3
same,mass density,"298.15 K, 5000 kPa, x2 = 0.5296",947.1 ± 4 kg/m3
same,mass density,"298.15 K, 5000 kPa, x2 = 0.5993",962 ± 4 kg/m3
same,mass density,"298.15 K, 5000 kPa, x2 = 0.7034",985.4 ± 4 kg/m3
same,mass density,"298.15 K, 5000 kPa, x2 = 0.8023",1003.4 ± 4 kg/m3
same,mass density,"298.15 K, 5000 kPa, x2 = 0.8921",1030.6 ± 4 kg/m3
same,mass density,"298.15 K, 5000 kPa, x2 = 0.9478",1044.9 ± 4 kg/m3
same,mass density,"298.15 K, 10000 kPa, x2 = 0.0432",870.4 ± 4 kg/m3
same,mass density,"298.15 K, 10000 kPa, x2 = 0.195",892.1 ± 4 kg/m3
same,mass density,"298.15 K, 10000 kPa, x2 = 0.3968",925.8 ± 4 kg/m3
same,mass density,"298.15 K, 10000 kPa, x2 = 0.4933",944 ± 4 kg/m3
same,mass density,"298.15 K, 10000 kPa, x2 = 0.5296",950.7 ± 4 kg/m3
same,mass density,"298.15 K, 10000 kPa, x2 = 0.5993",965.7 ± 4 kg/m3
same,mass density,"298.15 K, 10000 kPa, x2 = 0.7034",989.1 ± 4 kg/m3
same,mass density,"298.15 K, 10000 kPa, x2 = 0.8921",1034.7 ± 4 kg/m3
same,mass density,"298.15 K, 10000 kPa, x2 = 0.9478",1049 ± 4 kg/m3
same,mass density,"298.15 K, 20000 kPa, x2 = 0.0432",877.1 ± 4 kg/m3

# From the NIST ThermoML archive (doi:10.1016/j.jct.2013.09.039)
